# Assay results as given in patent US11629333B2, “Gamma delta T cells and a method of augmenting the tumoricidal activity of the same” (Agency for Science, Technology and Research, priority 2017, dated 2023).
# Key:
# [1] = system: Human PBMCs; test: Expansion of Vγ9Vδ2 T cells from PBMCs, cell frequencies by flow cytometry; format: cell-based
# Text: FIGS. 1A to 1D (collectively referred to as “FIG. 1”) show the characterization of the cells expanded with Zometa, OKT3 and gamma-irradiated K562 aAPCs. Human PBMCs were first expanded with Zometa for 7 days, followed by treatment with Zometa, OKT3 and gamma-irradiated K562 aAPCs for another 10 days. Frequencies of Vγ9Vδ2 T cells (FIG. 1A), NKG2D-positive cells (FIG. 1B), CD3-positive alpha beta T cells (FIG. 1C) and CD3-negative, CD56-positive NK cells (FIG. 1D) in PBMCs, on day 7 and day 17 analyzed by flow cytometry are shown. PBMC samples from 7 donors were tested and each sample is represented by one line.
# Human PBMC were isolated from fresh buffy coat of healthy donors by density gradient centrifugation using Ficoll-Paque (GE Healthcare, Milwaukee, Wis.). Human myelogenous leukemia cell line K562 (ATCC) and a K562-based aAPC cell line genetically engineered for stable expression of EGFP, CD86, CD64 and 4-1BBL (Du et al., 2016) were cultured in IMDM (Lonza Biotech, Basel, Switzerland) supplemented with 10% FBS. Other tumor cell lines used in the present invention were cultured in DMEM supplemented with 10% FBS.
# (§1) For Vγ9Vδ2 T cell activation and expansion, PBMCs were seeded at a density of 2E6 cells/ml in AIM-V (Life Technologies) supplemented with 5% human AB serum (Valley Biomedical, Winchester, Va.). Zometa (5 μM, Sigma Aldrich, St. Louis, Mo.) and IL-2 (300 IU/ml) were added on day 0, followed by adding 50 ng/ml anti-CD3 antibody (OKT3 clone, eBioscience, San Diego, Calif.), gamma irradiated K562 aAPCs at a 100:1 ratio, 300 IU/ml IL-2, and 5 μM Zometa from day 7 onwards. […] The culture medium was refreshed every 2 to 3 days. In other words, the cells were passaged every 2 to 3 days.
# [2] = system: CTLA-4, PD1, LAG3, TIGIT, TIM3, and BTLA; test: Expression of co-inhibitory receptors on PBMCs and expanded cells by flow cytometry; format: cell-based, human
# Text: FIGS. 2A to 2F (collectively referred to as “FIG. 2”) show the expression of co-inhibitory receptors CTLA-4 (FIG. 2A), PD-1 (FIG. 2B), LAG-3 (FIG. 2C), TIGIT (FIG. 2D), TIM-3 (FIG. 2E) and BTLA (FIG. 2F) on PBMCs and the expanded cells. Human PBMCs were first expanded with Zometa for 7 days, followed by treatment with Zometa, OKT3 and gamma-irradiated K562 aAPCs for another 10 days. The expression frequencies of 6 co-inhibitory receptors on PBMCs and on the expanded cells collected on day 7 and day 17 analyzed by flow cytometry are shown. PBMC samples from 7 donors were tested and each sample is represented by one line.
# as §1
# In view of the important roles of co-inhibitory receptors in cancer therapy, the expression of six of them, namely, CTLA-4, PD1, LAG3, TIGIT, TIM3, and BTLA, on the Zometa-expanded Vγ9Vδ2 T cells was examined using flow cytometry (FIG. 2).
# [3] = system: SW480 human colon carcinoma cells, HepG2 human hepatocarcinoma cells, U87 human glioblastoma cells and SKOV3 human ovarian cancer cells; test: Delfia EuTDA cytotoxicity assay, tumor cells with or without Zometa pre-treatment; format: cell-based; conditions: 1 μM Zometa pre-treatment of tumor cells
# Method: Target tumor cells tested were SW480 human colon carcinoma, HepG2 human hepatocarcinoma cells, U87 human glioblastoma cells and SKOV3 human ovarian cancer cells. Tumor cells were either pre-treated with 1 μM Zometa or without Zometa treatment. Effector used are indicated. Delfia EuTDA cytotoxicity assay (3 hours EuTDA culturing) was used to assess tumor cell lysis efficiency at an effector to target ratio of 10:1. The results of one representative experiment out of three are shown.
# The cytolytic activity of CAR-modified Vγ9Vδ2 T cells was examined with a non-radioactive method (DELFIA EuTDA Cytotoxicity Reagents kit, PerkinElmer, MA). Time-resolved fluorescence was measured in Victor3 multilabel plate counter (PerkinElmer). The effector to target (E:T) ratios used ranged from 20:1 to 2.5:1. Control groups were set up to measure spontaneous release (only target cells added), maximum release (target cells added with 10 μl lysis buffer), and medium background (no cell added). Killing efficacy was calculated by using the following formula: […]
# Zometa treatment was used because Zometa can increase intracellular levels of IPP, thereby increasing the sensitivity of tumor cells to Vγ9Vδ2 T cells.
# [4] = PBMCs treated with Zometa, day 7
# [5] = 7 days after Zometa treatment, all 7 samples
smiles,measurement,setting,value
"O=P(O)(O)C(O)(Cn1ccnc1)P(=O)(O)O [Zometa, zoledronic acid]",NKG2D-positive cell population,"[1]; PBMCs treated with 5 μM Zometa, day 0 to day 7",increase
same,Vγ9Vδ2 T-cell population,"[1]; PBMCs treated with 5 μM Zometa, day 7",~90%
same,proportion of NK cells,[1]; [4],less than 3%
same,proportion of αβ T cells,[1]; [4],less than 10%
same,CTLA-4-expressing cells,[2]; [5],significant increase
same,LAG3-expressing cells,[2]; [5],significant increase
same,TIGIT-expressing cells,[2]; [5],significant increase
same,TIM3-expressing cells,[2]; [5],significant increase
same,frequency of PD1-positive cells,"[2]; 7 days after Zometa treatment, remaining samples (one sample increased, one decreased)",minor increase or no change
same,BTLA expression,[2]; Zometa treatment for 7 days,reduced
same,sensitivity of HepG2 cells towards Vγ9Vδ2 T cells,[3]; HepG2,not
same,sensitivity of SKOV3 cells towards Vγ9Vδ2 T cells,[3]; SKOV3,significantly increased
same,sensitivity of SW480 cells towards Vγ9Vδ2 T cells,[3]; SW480,significantly increased
same,sensitivity of U87 cells towards Vγ9Vδ2 T cells,[3]; U87,significantly increased
